This is an account of results in patent publication US20200011856A1, “Method for Determining the Effectiveness of Treatment for the Prevention of Heartworm Disease” (priority 2017, published 2020).

For this assay, the system named is Dirofilaria immitis JYD strain (ivermectin-resistant). Put plainly: Infection of NSG mice with ivermectin-resistant JYD strain D. immitis L3, treatment, recovery and count of worms. The assay is classed as in vivo. As to conditions: for % Rec, Mean: group mean; for % Rec: individual mice.
Where [1] appears, read: 7823 1.0 mg/kg Days 1, 15, 30, 50 JYD Di L3 per NSG mouse, recovery Days 40-42, Table 20.
Setting [2] is: 7823 5.0 mg/kg Days 1, 15, 30, 50 JYD Di L3 per NSG mouse, recovery Days 40-42, Table 20.

Where “and” joins values, the source holds several entries; their conditions need not be identical. Equal values may be shown once.

Consider `CC(C)C[C@H]1C(=O)O[C@H](C)C(=O)N(C)[C@@H](CC(C)(C)F)C(=O)O[C@H](Cc2ccc(OC(F)(F)F)cc2)C(=O)N(C)[C@@H](CC(C)C)C(=O)O[C@H](C)C(=O)N(C)[C@@H](CC(C)(C)F)C(=O)O[C@H](Cc2ccc(OC(F)(F)F)cc2)C(=O)N1C` [compound 2677], for which the “% Rec, Mean” value (2677 1 mg/kg Days 1, 15, 30, 50 JYD Di L3 per NSG mouse, recovery Days 41 and 42, Table 18) is 8%. For the same molecule, where the note is “2677 1 mg/kg Days 1, 15, 30, 50 JYD Di L3 per NSG mouse, recovery Days 41 and 42, Table 18, 1 mg/kg”, the “% Rec” value is 6% and 4% (3×) and 2% and 18% and 16%. Besides, where the note is “in vivo, 1 mg/kg”, the “% Red” value is “% Red: 81%” and the “Survival, Mean” value is recorded as 4.
Regarding `CC(C)C[C@H]1C(=O)O[C@H](C)C(=O)N(C)[C@@H](CC(C)(C)F)C(=O)O[C@H](Cc2ccc(C3CCOCC3)cc2)C(=O)N(C)[C@@H](CC(C)C)C(=O)O[C@H](C)C(=O)N(C)[C@@H](CC(C)(C)F)C(=O)O[C@H](Cc2ccc(C3CCOCC3)cc2)C(=O)N1C` [compound 8800], the “% Red” value (8800 1 mg/kg Days 1, 15, 30, 50 JYD Di L3 per NSG mouse, Table 18, vs Control) is reported as “% Red: 67%”. The “% Rec, Mean” value (8800 1 mg/kg Days 1, 15, 30, 50 JYD Di L3 per NSG mouse, recovery Days 41 and 42, Table 18) came out at 14%. Moreover, for the setting “8800 1 mg/kg Days 1, 15, 30, 50 JYD Di L3 per NSG mouse, recovery Days 41 and 42, Table 18, 1 mg/kg”, the “% Rec” value is 12% (2×) and 16% and 8% and 4% and 26% and 18%. Moreover, the “Survival, Mean” value (in vivo, 1 mg/kg) came to 7.
`C[C@H]1OC(=O)[C@H](CC2CC2)N(C)C(=O)[C@@H](Cc2ccc(C(C)(C)C)cc2)OC(=O)[C@H](CC(C)(C)F)N(C)C(=O)[C@@H](C)OC(=O)[C@H](CC2CC2)N(C)C(=O)[C@@H](Cc2ccc(C(C)(C)C)cc2)OC(=O)[C@H](CC(C)(C)F)N(C)C1=O` [compound 7823]: the “% Red” value was “% Red: 83%” (7823 0.1 mg/kg Days 1, 15, 30, 50 JYD Di L3 per NSG mouse, Table 20, vs Control); “% Red: 91%” (7823 0.25 mg/kg Days 1, 15, 30, 50 JYD Di L3 per NSG mouse, Table 20, vs Control); “% Red: 87%” (7823 0.5 mg/kg Days 1, 15, 30, 50 JYD Di L3 per NSG mouse, Table 20, vs Control); “% Red: 98%” (7823 1 mg/kg Days 1, 15, 30, 50 JYD Di L3 per NSG mouse, Table 18, vs Control); “% Red: 100%” (7823 1.0 mg/kg Days 1, 15, 30, 50 JYD Di L3 per NSG mouse, Table 20, vs Control); “% Red: 100%” (7823 5.0 mg/kg Days 1, 15, 30, 50 JYD Di L3 per NSG mouse, Table 20, vs Control). Further, the “% Rec, Mean” value is 4% (7823 0.1 mg/kg Days 1, 15, 30, 50 JYD Di L3 per NSG mouse, recovery Days 40-42, Table 20); 2% (7823 0.25 mg/kg Days 1, 15, 30, 50 JYD Di L3 per NSG mouse, recovery Days 40-42, Table 20); 3% (7823 0.5 mg/kg Days 1, 15, 30, 50 JYD Di L3 per NSG mouse, recovery Days 40-42, Table 20); 0% under setting [1]; 1% (7823 1 mg/kg Days 1, 15, 30, 50 JYD Di L3 per NSG mouse, recovery Days 41 and 42, Table 18); 0% under setting [2]. The “% Rec” value (7823 0.1 mg/kg Days 1, 15, 30, 50 JYD Di L3 per NSG mouse, recovery Days 40-42, Table 20, 0.1 mg/kg) was 6% (2×) and 0% and 8% and 2%; the “% Rec” value (7823 0.25 mg/kg Days 1, 15, 30, 50 JYD Di L3 per NSG mouse, recovery Days 40-42, Table 20, 0.25 mg/kg) was 4% (2×) and 0% (3×); the “% Rec” value (7823 0.5 mg/kg Days 1, 15, 30, 50 JYD Di L3 per NSG mouse, recovery Days 40-42, Table 20, 0.5 mg/kg) was 0% (2×) and 8% and 4% and 2%; the “% Rec” value under setting [1] stood at 0%; the “% Rec” value (7823 1 mg/kg Days 1, 15, 30, 50 JYD Di L3 per NSG mouse, recovery Days 41 and 42, Table 18, 1 mg/kg) is 2% (2×) and 0% (4×) and 4%; the “% Rec” value under setting [2] amounted to 0%. Further, the “Survival, Mean” value reads like this: (in vivo, 0.1 mg/kg) 2; (in vivo, 0.25 mg/kg) 1; (in vivo, 0.5 mg/kg) 1; (in vivo, 5 mg/kg) 0. The Survival (in vivo, 5 mg/kg) is on record as 0.
For the molecule `CC(C)C[C@H]1C(=O)O[C@H](C)C(=O)N(C)[C@@H](CC(C)(C)F)C(=O)O[C@H](Cc2ccc(C(F)(F)F)cc2)C(=O)N(C)[C@@H](CC(C)C)C(=O)O[C@H](C)C(=O)N(C)[C@@H](CC(C)(C)F)C(=O)O[C@H](Cc2ccc(C(F)(F)F)cc2)C(=O)N1C` [compound 3615], the “% Red” value (3615 1 mg/kg Days 1, 15, 30, 50 JYD Di L3 per NSG mouse, Table 18, vs Control) was “% Red: 40%”. Besides, the “% Rec, Mean” value (3615 1 mg/kg Days 1, 15, 30, 50 JYD Di L3 per NSG mouse, recovery Days 41 and 42, Table 18) turned out to be 26%. In addition, under “3615 1 mg/kg Days 1, 15, 30, 50 JYD Di L3 per NSG mouse, recovery Days 41 and 42, Table 18, 1 mg/kg”, the “% Rec” value is 24% (2×) and 26% and 30% and 28% and 36% and 16%. In addition, the “Survival, Mean” value (in vivo, 1 mg/kg) is 13.
In the case of `C[C@H]1OC(=O)[C@H](CC(C)(C)C)N(C)C(=O)[C@@H](Cc2ccc(OC(F)(F)F)cc2)OC(=O)[C@H](CC(C)(C)F)N(C)C(=O)[C@@H](C)OC(=O)[C@H](CC(C)(C)C)N(C)C(=O)[C@@H](Cc2ccc(OC(F)(F)F)cc2)OC(=O)[C@H](CC(C)(C)F)N(C)C1=O` [compound 5010], for the setting “5010 1 mg/kg Days 1, 15, 30, 50 JYD Di L3 per NSG mouse, Table 18, vs Control”, the “% Red” value is listed as “% Red: 33%”. For the same molecule, the “% Rec, Mean” value (5010 1 mg/kg Days 1, 15, 30, 50 JYD Di L3 per NSG mouse, recovery Days 41 and 42, Table 18) is 29%. Moreover, the “% Rec” value (5010 1 mg/kg Days 1, 15, 30, 50 JYD Di L3 per NSG mouse, recovery Days 41 and 42, Table 18, 1 mg/kg) is 24% (2×) and 36% and 14% and 34% and 30% and 38%. In addition, where the note is “in vivo, 1 mg/kg”, the “Survival, Mean” value stood at 14.
